Patent publication US20050079549A1, “Methods for modeling GPCRs and for producing ligand blocking and receptor activating antibodies for same” (priority 2003, published 2005)

How the values were obtained:
[1] = system: mock transfected CHO control cells; experiment: phospho ERK 1/2 ELISA in mock transfected CHO control cells; assay type: cell-based; settings: 10 nM S1P, no antibody
Method: (§1) For example, CHO cells that are stably transfected with human S1P4 (formerly Edg 6) a GPCR (g protein coupled receptor) for sphingosine 1-phosphate (S1P) a lipid growth factor mediator or mock transfected CHO control cells are washed in DMEM and starved of serum for 4 hours at 37° C.
(§2) One million cells in 1 ml serum free DMEM were challenged with monoclonal antibodies that had been raised against a S1P4 cyclic molecular mimic loop 1B structure described herein for 10 minutes at room temperature. Monoclonal antibody supernatants containing DMEM with 10% fetal bovine serum antibiotics, L glutamine media supplements, were pretreated with cell culture tested Norite™ (Sigma Chemical Company) for 24 hours at 4 C to remove endogenous S1P from the media prior to the addition of supernatant to cells. Following antibody addition and incubation, 10 nM S1P was added for 15 minutes at 37 C. Controls of media alone, media and Norite™, media and 10 nM S1P, media-Norite™ and SIP, and media PMA were included. [drawing]

[2] = molecular target: T1, human S1P4 (formerly Edg 6) (Homo sapiens, UniProt O95977); experiment: phospho ERK 1/2 ELISA in CHO cells stably transfected with human S1P4; assay type: cell-based; settings: CHO EDG6 (S1P4); 10 nM S1P, no antibody
T1 sequence (O95977 1-384): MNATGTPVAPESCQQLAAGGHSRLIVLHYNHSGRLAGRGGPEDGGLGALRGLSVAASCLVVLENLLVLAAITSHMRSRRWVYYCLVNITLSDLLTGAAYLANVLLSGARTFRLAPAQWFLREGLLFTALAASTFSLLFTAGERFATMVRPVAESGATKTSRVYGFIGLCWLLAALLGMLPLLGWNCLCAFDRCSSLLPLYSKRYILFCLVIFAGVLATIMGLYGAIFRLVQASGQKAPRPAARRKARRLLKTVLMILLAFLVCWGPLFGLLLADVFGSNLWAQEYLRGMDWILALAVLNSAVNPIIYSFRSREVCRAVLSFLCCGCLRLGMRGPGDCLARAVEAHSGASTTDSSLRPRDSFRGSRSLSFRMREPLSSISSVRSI
Method: as §1, §2

[3] = NMR spectra of mixtures of loop peptide and O-phosphoethanolamine; assay type: binding; settings: mixture with O-phosphoethanolamine
From the text: NMR is used to characterize the interactions between the extracellular loops and O-phosphoethanolamine, a mimic of the S1P4 endogenous ligand to determine if potential for ligand binding exists.
The most important NMR result for the characterization of the interaction between the constrained peptides and O-phosphoethanolamine are heteronuclear 2D-NOE that allow derivation of the distances between the cationic nitrogens of R121 and R287 and the phosphate phosphorous atom of O-phosphoethanolamine. Additional information is derived from chemical shift changes of the protons in residues of the loop peptides upon addition of the phosphoethanolamine as well as chemical shift changes of protons on the phosphoethanolamine. Such chemical shift changes are indicative of changes in the electronic environment of these protons and are used in high-throughput NMR assays of ligand binding. (Shuker, S. B., Hajduk, P. J., Meadows, R. P. & Fesik, S. W. Discovering High-Affinity Ligands for Proteins: SAR by NMR. Science 274, 1531-1534 (1996)).

Row | phospho ERK 1/2 [2] | ligand binding by NMR [3] | Molecule | phospho ERK 1/2 [1]
1 | 1.280 ng/mL | – | CCCCCCCCCCCCC/C=C/[C@@H](O)[C@@H](N)COP(=O)(O)O [Clone S1P, sphingosine 1-phosphate] | 0.000 ng/mL
2 | – | reflect ligand binding | FLVWGPLFGLLLADVFGSNLWAQEYLRGMDWILAAVL [Loop 3, conformationally constrained peptide mimicking S1P4 extracellular loop 3] | –
3 | – | reflect ligand binding | TGAYLANVLLSGARTFRLAPAQWFLREGCLFT [Loop 1 B, conformationally constrained (disulfide) peptide mimicking S1P4 extracellular loop 1] | –
